Source: a melting point compilation (Tetko et al.; mined from patent text by program, amines drawn as free bases though some values may be those of a salt)

With `CCC(=O)Oc1ccc2c(c1)CCC1C2CCC2(C)C1CC(O)C2OC(=O)CC` (centres undefined) the melting point was 105 °C.
For `Cc1cc2nc(O)nc(O)c2s1`, the melting point was > 300 °C.
`CCc1cc2c(s1)SCCc1cc(=O)n(-c3ccc(Cl)cc3)nc1-2` showed a melting point of 127 to 128 °C.
`CNC(=NCCSCc1cc(CN2CCCCC2)ccn1)NC#N` gave a melting point of 79 to 81 °C.
In the case of `CCC1C(C)=NN=C(c2ccccc2Cl)c2cc(OC)c(OC)cc21` (centres undefined), the melting point is reported as 129 to 131 °C.
Work on `O=C(N[C@@H](Cc1ccccc1)C(=O)N1CCS(=O)CC1)c1cc2cc(Cl)ccc2[nH]1` yielded a melting point of 230 to 234 °C.
For `COC(=O)CC(O)CC(O)CCc1c(-c2ccc(F)cc2)c(-c2ccccc2)c(C(=O)Nc2ccc(C(=O)OC)cn2)n1C(C)C` (centres undefined), the melting point was 71 to 75 °C.
In the case of `COc1cc(Nc2c(C#N)cnc3cc(C#CCCN4CCNCC4)c(OC)cc23)c(Cl)cc1Cl`, the melting point is reported as 188 to 190 °C.
`Fc1ccc(Cn2c(NC3CCN(CCCCNc4nc5cnccc5[nH]4)CC3)nc3ccccc32)cc1` gave a melting point of 228 °C.
For `OCCCCOc1ccc2ccccc2c1`, the melting point was 66.5 to 67.5 °C.
`CCc1noc(-c2cn(-c3ccccc3OCCc3ccccc3)cn2)n1` showed a melting point of 61 °C.
`COc1cc(N(CC(N)=O)S(=O)(=O)c2ccc(OC)c(OC)c2)c(C(O)c2c(F)cccc2F)cc1C` (centres undefined) gave a melting point of 204 °C.
In the case of `Cc1nc2n(c(=O)c1CCN1CCC(c3noc4ccccc34)CC1)CCCC2`, the melting point is reported as 183 °C.
For `c1csc(-c2ccc(C34CCN(CC3)C4)cn2)n1`, the melting point was 127 to 129 °C.
Work on `O=C(Nc1csc(Br)n1)C(Cl)(Cl)Cl` yielded a melting point of 77 to 80 °C.
For `CN1CCC2(C)c3cc(O)cc(Cl)c3N(C)C12` (centres undefined), the melting point was 152 to 154 °C.
With `COC(=O)C=C[C@@H](Cc1cn(CC=Cc2ccccc2)c2ccccc12)NC(=O)OC(C)(C)C` the melting point was 119 to 121 °C.
In the case of `CCCCOc1c(CNC(=O)OC(C)(C)C)n(CC(C)C)c(=O)c2ccc(-c3nc(C)c(C#N)s3)cc12`, the melting point is reported as 148 to 150 °C.
Compound `O=C(O)c1ccc(OCCNC(=O)C2Cc3ccccc3N2S(=O)(=O)c2ccc(-c3ccc(F)cc3F)cc2)cc1` (centres undefined) has a melting point of 92 °C.
With `COc1ccc2c(c1)CN(c1ccc3c(ccn3C)c1)C2` the melting point was 193 to 196 °C.
For `CCOC(=O)COc1ccc([N+](=O)[O-])cc1C1C(C(=O)OCC)=C(C)NC(C)=C1C(=O)OCC`, the melting point was 175 °C.
`OCc1cc(C(F)(F)F)ccc1I` gave a melting point of 81 to 82 °C.
With `O=S(=O)(Nc1c(Cl)ccc2cc(-c3ncc(CO)s3)[nH]c12)c1cccs1` the melting point was 197 to 199 °C.
For `CC(=O)NCCc1cccc2ccc(OCCCCOc3ccc4occ(CCNC(C)=O)c4c3)cc12`, the melting point was 160 to 162 °C.
`Cc1ccc(C=C2C3=C(C=CC2(C)C)CC(C)CN3)cc1` (centres undefined) showed a melting point of 153 °C.
For `CCOc1cccc2cc(C(=O)c3ccc(Cl)cc3)oc12`, the melting point was 108 to 110 °C.
With `COc1ccc(-c2cc3c(OC)cc(OC)cc3nc2OC(C)C(=O)N(C)C)cc1` (centres undefined) the melting point was 54 to 55 °C.
For `CCN(CC)CCNCc1ccc(C(=O)Nc2nc(-c3ccccc3)c(-c3ccc(=O)n(C(C)C)n3)s2)cc1`, the melting point was 158 to 160 °C.
For `C=C=CN(C(=O)c1ccco1)c1c(C)cccc1C`, the melting point was 138 to 141 °C.
`CCCCCCCCCCC(=O)C(=O)N[C@@H](CCCC)CCC(=O)O` showed a melting point of 50 to 52 °C.
For `CCOc1ccc(C2C(=O)Oc3c2cc(C(C)(C)C)cc3C(C)(C)C)cc1` (centres undefined), the melting point was 132 to 134 °C.
Compound `COC(=O)NC1CCN(c2ncc3ncnc(Nc4ccc(F)c(Cl)c4)c3n2)CC1` has a melting point of 195 to 197 °C.
With `CC1=C(C(=O)OCC2CCCO2)C(c2cccc(Br)c2)C(C(=O)OCC2CCCO2)=C(C)N1` (centres undefined) the melting point was 138 to 140 °C.
Work on `CCCSc1ccc2c3c(cccc13)C(=O)N2` yielded a melting point of 145 to 148 °C.
With `CCOC(=O)CCc1cc(Cl)ccc1C(=O)CCCNC(=O)CCCNC(C)=O` the melting point was 95 °C.
`O=C1c2c(c(=O)n3nc(-c4ccccc4)cc3n2Cc2ccccc2)CN1c1ccccc1` gave a melting point of 271 to 272 °C.
With `COc1nc(NC(=O)NS(=O)(=O)c2ccccc2Cl)nc2nccnc12` the melting point was 212 °C.
For `CC(C)c1ccc(-c2cn(-c3cccc(C(=O)O)c3)cn2)cc1`, the melting point was 248 to 250 °C.
`CCOc1nn2c(-c3ccccc3)nnc2c2ccccc12` gave a melting point of 172 to 173 °C.
In the case of `COc1ccc2c(c1)OCC(c1ccc(F)cc1)C2c1ccc(OCCN2CCCCC2)cc1` (centres undefined), the melting point is reported as 93.5 to 94.5 °C.
`COc1cc(OC)c2c(=O)[nH]c(-c3cccc(-c4ccc(C(=O)N(C)C)cc4)n3)nc2c1` gave a melting point of 217 to 219 °C.
With `Cc1ccc2nc(-c3ccccc3F)oc2n1` the melting point was 136 to 137 °C.
Compound `OC(C(=Cc1cccnc1)c1ccc(F)cc1)c1ccccc1Cl` (centres undefined) has a melting point of 82 to 83 °C.
For `COC(=O)c1csc(-c2cc3ccccc3[nH]2)n1`, the melting point was 69 to 71 °C.
Compound `NC(=O)c1cc([N+](=O)[O-])ccc1SSc1ccc([N+](=O)[O-])cc1C(N)=O` has a melting point of 266 to 269 °C.
For `CN1CCc2c(c3ccccc3n2CCC(=O)NN)C1`, the melting point was 123 to 124 °C.
`Cc1nc(Nc2ccccc2)sc1-c1ccc(Cl)c([N+](=O)[O-])c1` gave a melting point of 162 to 165 °C.
Work on `CC(C(=O)O)c1ccc(Oc2ccc(F)cc2)cc1` (centres undefined) yielded a melting point of 84 to 86 °C.
`O=C(/C=C/c1c(Cl)cccc1Cl)/C=C/c1c(Cl)cccc1Cl` showed a melting point of 145 to 146 °C.
`CC(C)(C)OC(=O)n1cc(C(=O)C2CSC(c3cccnc3)N2)c2cccc(OCc3ccccc3)c21` (centres undefined) gave a melting point of 91 to 96 °C.
`CC1C(NC(=O)OCc2ccccc2)C(=O)N1OCC(=O)OC(C)(C)C` (centres undefined) gave a melting point of 30 °C.
`CCCCc1c(C(=O)OCC)cc(Oc2nnnn2-c2ccccc2)c2ccc(OC)cc12` showed a melting point of 94 to 96 °C.
`CN(C)C(=O)c1ccc(-c2ccc(Cl)cc2)o1` gave a melting point of 101 to 102 °C.
`COc1ccc2[nH]cc(C3=CCN(C)CC3)c2n1` gave a melting point of 203 °C.
`COc1cc(S(=O)(=O)CCO)ccc1[N+](=O)[O-]` showed a melting point of 95 to 96 °C.
Work on `O=C1c2ccccc2C(Cc2ccnc(F)c2)(Cc2ccnc(F)c2)c2cc(O)ccc21` yielded a melting point of 219 to 221 °C.
`O=C(O)C(=O)c1ccc(OCCOc2cccc3ccccc23)cc1` gave a melting point of 124 to 125 °C.
With `Cc1nc(-c2ccc(=O)n(C(C)C)n2)c(-c2ccccc2)nc1N` the melting point was 208 to 210 °C.
`CCC(CC)(CC(=O)Nc1cccc(/C=C/c2cccc(CCCCCCc3ccc(OCCC(C)C)cc3)n2)c1)C(=O)O` gave a melting point of 136 to 137 °C.
For `CC(C)Cn1c(CNC(=O)OC(C)(C)C)c(-c2ccc(F)cc2)c2cc(/C=C/C(=O)O)ccc2c1=O`, the melting point was 201 to 202 °C.
For `CCOC(=O)c1ccc(NC(=O)C=C(C)c2ccc(Cl)cc2)cc1`, the melting point was 150 to 152 °C.
With `COc1ccc(/C=N/N2CCCCC2)cc1OC1CCCC1` the melting point was 81 to 82 °C.
In the case of `CCOc1cccnc1C(=O)NCCNC(=O)OC(C)(C)C`, the melting point is reported as 125 to 126 °C.
For `O=c1ccccn1C1=CC(CF)(CF)Oc2ccc(C(F)(F)F)cc21`, the melting point was 139 to 140 °C.
`CC1Cc2cccc(Cl)c2C1=O` (centres undefined) showed a melting point of 42 to 43 °C.
Compound `CNC(Cc1c[nH]c2c(Cl)cccc12)C(=O)O` (centres undefined) has a melting point of 208 to 211 °C.
`CC(NC(=O)OC(C)(C)C)C(=O)NO` (centres undefined) gave a melting point of 74 to 76 °C.
`CC(C)OC(=O)N1CCC(c2nc3ccc(-c4ccc(C(N)=O)c(F)c4)cc3o2)CC1` gave a melting point of 178 to 181 °C.
In the case of `COc1ccc(-c2cnc(S)nc2-c2ccc(OC)cc2)cc1`, the melting point is reported as 188 to 191 °C.
Compound `CCOc1ccc(O)c(CC(=O)OC)c1` has a melting point of 83 to 84 °C.
For `CCOC(=O)CCC1Cn2c(-c3ccc(OC)cc3)c(C)c3cccc(c32)O1` (centres undefined), the melting point was 154 °C.
`CS(=O)(=O)Oc1ccccc1S(=O)(=O)Cl` showed a melting point of 94 to 95 °C.
`CC1=C(C=O)C(C)(C)c2c(C)c(C)c(C)c(C)c21` gave a melting point of 176 °C.
In the case of `CCCc1sc(N)c(C(=O)c2ccc(Cl)cc2)c1C`, the melting point is reported as 94 to 95 °C.
Work on `CN(C)CCOc1c(-c2ccc(S(C)(=O)=O)cc2)cnn(-c2cccc(Cl)c2)c1=O` yielded a melting point of 110 to 113 °C.
Compound `Cc1c2n(c3ccccc13)C(=O)C(Cc1cncn1C)CC2` (centres undefined) has a melting point of 117 to 118 °C.
For `c1ccc(C(NC2C3CC4CC(C3)CC2(OCc2ccc(-c3nc5ccccc5o3)cc2)C4)(c2ccccc2)c2ccccc2)cc1` (centres undefined), the melting point was 208 to 210 °C.
For `COC(=O)CN1CCN(c2cccc(-c3nc4cc(OC)cc(OC)c4c(=O)[nH]3)n2)CC1`, the melting point was 176 to 177 °C.
With `Nc1nc(N)c(-c2ccc(Cl)cc2Cl)c(CF)n1` the melting point was 210 to 211 °C.
Compound `CN1CC(c2nccc(CCc3ccccc3)n2)=C(O)C1=O` has a melting point of 118 to 119 °C.
`CC(C)OC(=O)CS(=O)(=O)C=C1SC=CS1` gave a melting point of 127 to 128 °C.
For `COc1ccc(S(=O)(=O)N(CCC(C)C)CC(O)C(Cc2ccccc2)NC(=O)C(C)CS(C)(=O)=O)cc1` (centres undefined), the melting point was 125 to 129 °C.
`O=C(Nc1cc(-c2ccc(-c3ccccc3)cc2)on1)c1c(Cl)cccc1Cl` showed a melting point of 256 to 259 °C.
Work on `CC(C)c1cc(C(C)C)c(NC(=O)CN2CCN(CCSc3nc4ccccc4o3)CC2)c(C(C)C)c1` yielded a melting point of 160 to 163 °C.
For `Cc1cc(O)n2nc(CN)nc2n1`, the melting point was 204 to 207 °C.
For `C=C1CC(c2ccc(Br)s2)N(C)C1=O` (centres undefined), the melting point was 177 to 180 °C.
Compound `CCNC(=O)[C@@H]1Cc2ccccc2N1` has a melting point of 92 to 95 °C.
Work on `CCn1nc(-c2ncc(NCc3ccc(OC)cc3)nc2-c2ccccc2)ccc1=O` yielded a melting point of 148 to 150 °C.
Compound `CC1(C)OCC(CN2C(=O)C3(COc4cc5c(cc43)OCCO5)c3ccccc32)O1` (centres undefined) has a melting point of 55 to 57 °C.
`Cc1[nH]c(C(=O)NCCc2ccccn2)c(C)c1-c1nc2ccc(Oc3ccccc3)cc2[nH]1` gave a melting point of 290 to 293 °C.
With `CCCc1nc2c(N)nc3ccccc3c2n1CCCCNS(C)(=O)=O` the melting point was 186 to 188 °C.
Work on `O=C(c1cc(O)c(O)c([N+](=O)[O-])c1)c1nc2ccccc2[nH]1` yielded a melting point of 240 to 250 °C.
With `CCc1cccc(C)c1CNc1cc(C(=O)N(C)C)cc2[nH]c(C)nc12` the melting point was 228 to 230 °C.
`CCn1cc(C2(c3cccc(-c4cncc(F)c4)c3)N=C(N)N(C)C2=O)cn1` (centres undefined) gave a melting point of 216 to 220 °C.
Compound `O=[N+]([O-])c1cc(-c2nc(-c3ccco3)no2)ccc1Cl` has a melting point of 136 to 138 °C.
Work on `Cc1cc(OC(F)(F)C(F)C(F)(F)F)ccc1NC(=O)c1cccc(I)c1` (centres undefined) yielded a melting point of 188 °C.
Compound `CCOP(=O)(Cc1cc(=O)[nH]c2cc(I)ccc12)OCC` has a melting point of 196 to 198 °C.
Work on `COc1cc(Cl)c([N+](=O)[O-])cc1OC` yielded a melting point of 103 to 105 °C.
With `NS(=O)(=O)c1ccc(NCC(=O)Nc2ccccc2)cc1` the melting point was 257 to 258 °C.
